The results in this text go back to patent US11053218B2, “3-(1-oxoisoindolin-2-yl)piperidine-2,6-dione derivatives and uses thereof” (Novartis AG, priority 2017, dated 2021).

The structures appear in SMILES notation.

One test deals with IKZF1 (Homo sapiens, UniProt Q13422+Q96SW2). Briefly: Prolabel quantification of IKZF1 protein levels in 293GT cells. Conditions: Prolabel assay, read-out: IKZF1 EC50. The test is classed as cell-based. Here is the method: (§1) The Prolabel system from DiscoverX was used to develop high-throughput and quantitative assays to measure changes in IKZF1, IKZF2 and GSPT1 protein levels in response to compounds. The prolabel tag was derived from the alpha fragment of beta galactosidase and has the following protein sequence: mssnslavvlqrrdwenpgvtqlnrlaahppfaswrnseeartdrpsqqlrslnge. The complementary fragment of beta-galactosidase (from DiscoverX), is added to the prolabel tag to form an active beta galactosidase enzyme whose activity can be precisely measured. In this way, the levels of a fusion protein with the prolabel tag can be quantified in cell lysates.
Chain of IKZF1 (Q13422 whole entry, the tested form may be a part): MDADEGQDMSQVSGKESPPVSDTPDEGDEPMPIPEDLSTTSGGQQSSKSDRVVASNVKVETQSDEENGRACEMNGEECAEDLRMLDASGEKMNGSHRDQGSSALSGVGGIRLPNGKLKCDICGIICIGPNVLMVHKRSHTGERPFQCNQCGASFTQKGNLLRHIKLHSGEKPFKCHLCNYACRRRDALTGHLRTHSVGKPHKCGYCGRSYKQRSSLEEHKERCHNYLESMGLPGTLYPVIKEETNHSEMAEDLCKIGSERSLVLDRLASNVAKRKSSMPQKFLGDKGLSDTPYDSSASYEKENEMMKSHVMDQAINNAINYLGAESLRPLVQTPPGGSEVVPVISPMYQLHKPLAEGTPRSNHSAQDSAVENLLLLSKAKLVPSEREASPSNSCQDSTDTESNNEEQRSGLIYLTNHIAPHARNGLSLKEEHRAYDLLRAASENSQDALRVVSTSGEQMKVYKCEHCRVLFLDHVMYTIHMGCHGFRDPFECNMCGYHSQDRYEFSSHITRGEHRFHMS
Chain of IKZF1 (Q96SW2 whole entry, the tested form may be a part): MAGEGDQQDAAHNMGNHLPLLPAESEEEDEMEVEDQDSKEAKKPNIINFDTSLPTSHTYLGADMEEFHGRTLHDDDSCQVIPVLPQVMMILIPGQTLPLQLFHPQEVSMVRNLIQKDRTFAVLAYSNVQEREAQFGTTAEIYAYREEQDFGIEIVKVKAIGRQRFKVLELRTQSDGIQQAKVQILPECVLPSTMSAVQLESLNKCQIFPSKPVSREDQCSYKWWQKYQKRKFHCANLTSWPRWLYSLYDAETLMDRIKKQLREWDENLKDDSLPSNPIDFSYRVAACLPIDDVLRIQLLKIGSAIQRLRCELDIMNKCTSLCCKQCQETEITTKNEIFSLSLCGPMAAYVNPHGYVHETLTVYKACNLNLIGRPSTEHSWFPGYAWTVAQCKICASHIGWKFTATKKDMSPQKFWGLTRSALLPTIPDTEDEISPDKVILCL
Chain of IKZF1 (Q16531 whole entry partner, the tested form may be a part): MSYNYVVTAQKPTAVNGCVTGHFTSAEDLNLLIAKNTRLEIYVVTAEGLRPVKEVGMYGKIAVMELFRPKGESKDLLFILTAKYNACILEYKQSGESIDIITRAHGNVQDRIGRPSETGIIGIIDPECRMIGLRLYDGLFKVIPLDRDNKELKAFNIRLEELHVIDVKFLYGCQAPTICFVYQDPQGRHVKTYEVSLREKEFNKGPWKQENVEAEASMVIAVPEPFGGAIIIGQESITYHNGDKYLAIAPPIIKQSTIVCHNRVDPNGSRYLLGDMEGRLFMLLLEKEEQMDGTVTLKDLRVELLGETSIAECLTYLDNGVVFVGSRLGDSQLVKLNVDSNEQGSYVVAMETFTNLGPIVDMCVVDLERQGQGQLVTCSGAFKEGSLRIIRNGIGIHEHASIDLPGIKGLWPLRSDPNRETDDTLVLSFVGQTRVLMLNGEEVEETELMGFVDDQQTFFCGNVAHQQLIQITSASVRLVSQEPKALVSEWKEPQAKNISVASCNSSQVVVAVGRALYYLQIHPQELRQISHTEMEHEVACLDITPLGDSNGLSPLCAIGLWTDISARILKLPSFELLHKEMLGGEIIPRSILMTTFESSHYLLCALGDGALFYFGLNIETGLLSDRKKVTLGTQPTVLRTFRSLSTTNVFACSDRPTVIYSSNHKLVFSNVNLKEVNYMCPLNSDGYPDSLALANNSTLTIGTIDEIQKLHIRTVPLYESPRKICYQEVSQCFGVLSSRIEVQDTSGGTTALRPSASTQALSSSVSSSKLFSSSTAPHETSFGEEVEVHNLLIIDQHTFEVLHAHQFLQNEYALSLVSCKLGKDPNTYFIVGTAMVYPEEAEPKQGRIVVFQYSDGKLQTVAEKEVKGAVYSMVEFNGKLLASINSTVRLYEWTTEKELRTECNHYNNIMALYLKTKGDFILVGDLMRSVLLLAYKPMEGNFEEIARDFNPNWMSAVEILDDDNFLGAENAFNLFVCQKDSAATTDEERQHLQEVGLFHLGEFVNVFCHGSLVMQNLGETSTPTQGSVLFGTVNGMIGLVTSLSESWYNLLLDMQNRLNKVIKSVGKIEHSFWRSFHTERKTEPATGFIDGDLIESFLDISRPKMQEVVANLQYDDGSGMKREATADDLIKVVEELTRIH
(§2) Lentiviral vectors, based on the Invitrogen pLenti6.2/V5 DEST backbone, were constructed that placed the prolabel tag upstream of IKZF1, IKZF2 or GSPT1 and expressed the fusion protein from a CMV promoter.
(§3) To ensure moderate and consistent expression of the prolabel fusion proteins across all cells in the population, stable cell lines were constructed from cells expressing a single copy of the construct. Lentivirus packaged with the constructs was made using the Virapower kit from Invitrogen.
(§4) The levels of prolabel tagged fusion proteins in compound treated cell lines were measured as follows:
(§5) Day 1, Cells were diluted to 1.0×10^6 cells/ml in normal growth medium. 17.5 μL of cells were plated in each well of a solid white 384 well plate. Plates were incubated overnight in a 37° C. tissue culture incubator.
(§6) Day 2, Serial dilutions of compounds were made in 384 well plates from 10 mM stocks. 15 μL of DMSO was added to each well of a 384 well plate. In the first column 15 μL of stock compound was added. The solution was mixed and 15 μL was transferred to the next column. This was repeated until 20 two-fold dilutions were prepared. 2.5 μL of diluted compounds were transferred into 60 μL of cell culture medium in another 384 well plate, and mixed well. 2.5 μL of this mixture was added to the plated cells. The final DMSO concentration was 0.5% and the highest concentration of compound was 50 μM. Plates were incubated overnight (e.g., about 14 h, 18 h, or 24 h) in a 37° C. tissue culture incubator.
(§7) Day 3, Plates were removed from the incubator and allowed to equilibrate at rt for 30 minutes. Prolabel substrate (DiscoverX PathHunter Prolabel Detection Kit, User manual: 93-0180) was added as described by the manufacturers protocols. Plates were incubated at rt for three hours and luminescence was read using an Envision reader (Perkin Elmer) Data was analyzed and visualized using the Spotfire software package.

Another test deals with IKZF2 (Homo sapiens, UniProt Q96SW2+Q9UKS7). The test can be described thus: Prolabel quantification of IKZF2 protein levels in 293GT cells. The test is classed as cell-based. Conditions: for inhibition at 10 µM: 24 h, read-out: IKZF2 % protein reduction at 10 μM, 24 h; for inhibition at 10 µM / DC50: 293GT cells; for DC50: Prolabel assay, read-out: IKZF2 EC50. As for the experimental part: as §1, §2, §3, §4, §5, §6, §7
Chain of IKZF2 (Q9UKS7 whole entry): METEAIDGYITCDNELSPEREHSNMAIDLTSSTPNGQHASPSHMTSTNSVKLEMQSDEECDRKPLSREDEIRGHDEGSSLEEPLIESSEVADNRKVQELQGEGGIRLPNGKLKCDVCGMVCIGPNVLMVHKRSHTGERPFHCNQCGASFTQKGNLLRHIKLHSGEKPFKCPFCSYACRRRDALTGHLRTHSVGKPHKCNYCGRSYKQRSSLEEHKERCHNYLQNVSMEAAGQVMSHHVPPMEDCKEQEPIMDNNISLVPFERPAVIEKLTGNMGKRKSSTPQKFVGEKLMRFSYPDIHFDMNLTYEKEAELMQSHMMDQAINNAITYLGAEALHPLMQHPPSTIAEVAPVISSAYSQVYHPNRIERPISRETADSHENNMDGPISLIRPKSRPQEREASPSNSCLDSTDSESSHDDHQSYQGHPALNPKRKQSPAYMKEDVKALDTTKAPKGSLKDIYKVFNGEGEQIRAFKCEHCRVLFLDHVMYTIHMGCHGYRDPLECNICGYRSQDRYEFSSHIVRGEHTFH
Chain of IKZF2 (Q96SW2 whole entry): as the sequence (Q96SW2 whole entry, the tested form may be a part) above
Chain of IKZF2 (Q16531 whole entry partner): as the sequence (Q16531 whole entry partner, the tested form may be a part) above

Turning to `O=C1CCC(N2Cc3cc(C4CCN(Cc5ccnn5-c5ccccc5)CC4)ccc3C2=O)C(=O)N1` (stereo not shown) [Compound I-286, 3-(1-oxo-5-(1-((1-phenyl-1H-pyrazol-5-yl)methyl)piperidin-4-yl)isoindolin-2-yl)piperidine-2,6-dione], the values for the DC50 at IKZF1 and at IKZF2 were over 30000 nM and 720 nM, respectively. The inhibition at 10 µM at IKZF2 is 40%.
On to `Cc1ccc(CN2CCC(c3ccc4c(c3)CN(C3CCC(=O)NC3=O)C4=O)CC2)cc1F` (stereo not shown) [Compound I-69, 3-(5-(1-(3-fluoro-4-methylbenzyl)piperidin-4-yl)-1-oxoisoindolin-2-yl)piperidine-2,6-dione], for which the DC50 at IKZF1 was over 30000 nM. For the same compound, on IKZF2, the inhibition at 10 µM turned out to be 80% and the DC50 was determined as 15 nM. The “IKZF2 protein levels as compared to the control (DMSO)” value at IKZF2 (Prolabel assay in HEK293GT cells, bar graph) was “decreased”.
For `O=C1CCC(N2Cc3cc(C4CCN(C(CF)c5ccccc5)CC4)ccc3C2=O)C(=O)N1` (stereo not shown) [Compound I-212, 3-(5-(1-(2-fluoro-1-phenylethyl)piperidin-4-yl)-1-oxoisoindolin-2-yl)piperidine-2,6-dione], the DC50 at IKZF1 was over 30000 nM. In addition, at IKZF2, the inhibition at 10 µM is 60% and the DC50 worked out at 49 nM.
In the same order, the values of `O=C1CCC(N2Cc3cc(C4CCN(Cc5c[nH]nc5-c5ccccc5)CC4)ccc3C2=O)C(=O)N1` (stereo not shown) [Compound I-148, 3-(1-oxo-5-(1-((3-phenyl-1H-pyrazol-4-yl)methyl)piperidin-4-yl)isoindolin-2-yl)piperidine-2,6-dione] are over 30000 nM, 70% and 39 nM.
The like results for `O=C1CCC(N2Cc3cc(C4CCN(Cc5cccc(OC(F)F)c5)CC4)ccc3C2=O)C(=O)N1` (stereo not shown) [Compound I-79, 3-(5-(1-(3-(difluoromethoxy)benzyl)piperidin-4-yl)-1-oxoisoindolin-2-yl)piperidine-2,6-dione] were, in that order, over 30000 nM, 75% and 3 nM.
For the compound `NC(=O)c1nc(CN2CCC(c3ccc4c(c3)CN(C3CCC(=O)NC3=O)C4=O)CC2)no1` (stereo not shown) [Compound I-235, 3-((4-(2-(2,6-dioxopiperidin-3-yl)-1-oxoisoindolin-5-yl)piperidin-1-yl)methyl)-1,2,4-oxadiazole-5-carboxamide], at IKZF1, the DC50 was over 30000 nM. On IKZF2, the inhibition at 10 µM came out at 40% and the DC50 came out at 2440 nM.
The like results for `O=C1CCC(N2Cc3cc(C4CCN(Cc5ccc(OCc6ccccn6)cc5)CC4)ccc3C2=O)C(=O)N1` (stereo not shown) [Compound I-255, 3-(1-oxo-5-(1-(4-(pyridin-2-ylmethoxy)benzyl)piperidin-4-yl)isoindolin-2-yl)piperidine-2,6-dione] were, in that order, over 30000 nM, 60% and 49 nM.
Take `O=C1CCC(N2Cc3cc(C4CCN(Cc5ccc(F)cc5F)CC4)ccc3C2=O)C(=O)N1` (stereo not shown) [Compound I-101, 3-(5-(1-(2,4-difluorobenzyl)piperidin-4-yl)-1-oxoisoindolin-2-yl)piperidine-2,6-dione]: the DC50 at IKZF1 was over 30000 nM; at IKZF2, 17 nM. For the same compound, the inhibition at 10 µM at IKZF2 was determined as 60%.
The like results for `COC1CCN(c2ccc(CN3CCC(c4ccc5c(c4)CN(C4CCC(=O)NC4=O)C5=O)CC3)cc2)CC1` (stereo not shown) [Compound I-227, 3-(5-(1-(4-(4-methoxypiperidin-1-yl)benzyl)piperidin-4-yl)-1-oxoisoindolin-2-yl)piperidine-2,6-dione] were, in that order, over 30000 nM, 4 nM and 60%.
As to `O=C1CCC(N2Cc3cc(C4CCN(Cc5cccc6ncnn56)CC4)ccc3C2=O)C(=O)N1` (stereo not shown) [Compound I-127, 3-(5-(1-([1,2,4]triazolo[1,5-a]pyridin-5-ylmethyl)piperidin-4-yl)-1-oxoisoindolin-2-yl)piperidine-2,6-dione], the DC50 on IKZF1 was over 30000 nM. At IKZF2, the inhibition at 10 µM is 45% and the DC50 was found to be 190 nM.
